# How the values were obtained:
# [1] = test system: metastatic pancreatic cancer; assay: Phase 2 clinical study, efficacy (RECIST 1.1, TTP, PFS, OS)
# Description: Eligible patients (aged ≥18 y) were relapsed/refractory to standard treatment and met inclusion/exclusion criteria. […] Each received either two 72-hr infusions of 110 mg/kg IV Coenzyme Q10 alone (Monotherapy) or in combination with gemcitabine (Combination Therapy), per week. Tumor response was evaluated at week 10 and then every 8 weeks. Clinical assessments included investigator observations and patient reports. This study occurred in two parts: Part 1 of the study enrolled ten (10) patients in the Coenzyme Q10 (monotherapy arm) and ten (10) patients in the Coenzyme Q10 plus gemcitabine (combination therapy arm) with intent to enroll the additional 15 patients (Part 2) into the applicable treatment arm(s) based on RECIST v1.1 clinical response.
# Patients with no prior gemcitabine treatments prior to screening for the study, or prior gemcitabine treatment >3 months prior to screening for the study were assigned to the combination therapy group. Patients with prior gemcitabine discontinued due to toxicity in prior treatment, patients unable to tolerate a dose of 800 mg/m^2 weekly at any point due to toxicity, and patients with prior gemcitabine treatment ≤3 months prior to screening for the study were assigned to the monotherapy group.
# (§2) A Coenzyme Q10 Nanosuspension Injection (40 mg/mL) was administered IV over 144 hours. Each patient received 2 consecutive 72-hour infusions per week. Monotherapy arm patients received a Coenzyme Q10 dose of 110 mg/Kg only weekly. Patients in the combination therapy arm received a Coenzyme Q10 dose of 110 mg/Kg and gemcitabine IV once weekly (starting at week 3) at a starting dose of 1000 mg/m^2.
# The primary objective of the study was to evaluate the Overall Response Rate (ORR) in patients treated with the combination of Coenzyme Q10 with gemcitabine or Coenzyme Q10 as a monotherapy. The secondary objectives were to evaluate Overall Survival (OS), Progression-Free Survival (PFS) overall and at around 10 weeks (equal to 2 cycles of treatment), Time to Progression (TTP), Tumor Response using Adaptive Molecular Responses (multi-omic molecular profiling), the toxicity profile of Coenzyme Q10 with gemcitabine and as monotherapy when given over 144-hour intravenous (IV) infusion in patients with advanced pancreatic cancer, changes in carbohydrate antigen (CA) 19-9 levels, and patient reported Quality of Life (QOL) using the validated FACT-HEP PRO.
# The study described above in Example 1 was continued and additional patients were evaluated.
# pancreatic models = assay: Preclinical in vivo pancreatic models, survival; conditions: IV administration, alone and in combination with gemcitabine
# Source text: (§1) The composition comprising Coenzyme Q10 evaluated in this study is a ubidecarenone containing intravenous (IV) nanodispersion that switches cancer energy generation from glycolysis to mitochondrial oxidative phosphorylation to elicit an anticancer effect.
# [2] = Phase 2 clinical study, adverse events / toxicity profile; conditions: for Patients with an AE: safety population (31 patients), % of all 31
# Description: Eligible patients (aged ≥18 y) were relapsed/refractory to standard treatment and met inclusion/exclusion criteria. […] Each received either two 72-hr infusions of 110 mg/kg IV Coenzyme Q10 alone (Monotherapy) or in combination with gemcitabine (Combination Therapy), per week. Tumor response was evaluated at week 10 and then every 8 weeks. Clinical assessments included investigator observations and patient reports.
# as §2
# [3] = Phase I clinical trial; monotherapy and in combination with gemcitabine; IV
# Source text: as §1
# [4] = Example 1, overall current population
# [5] = Example 1, preliminary, both arms
# [6] = treatment-emergent, safety population
structure (smiles),measurement,setting,value
COC1=C(OC)C(=O)C(C/C=C(\C)CC/C=C(\C)CC/C=C(\C)CC/C=C(\C)CC/C=C(\C)CC/C=C(\C)CC/C=C(\C)CC/C=C(\C)CC/C=C(\C)CCC=C(C)C)=C(C)C1=O [Coenzyme Q10],mean overall survival,[1]; [4],125 days
same,mean time to progression (TTP),[1]; [4],68 days
same,median overall survival,[1]; [4],108 days
same,median time to progression (TTP),[1]; [4],53 days
same,patients with SD <4 months,[1]; [5],4
same,patients with SD >4 months,[1]; [5],3
same,"stable disease (SD) noted, number of patients by arm","[1]; Example 1, preliminary, of 13 evaluable patients",1
same,"stable disease (SD) noted, number of patients","[1]; Example 1, preliminary, of 13 evaluable patients, both arms",7
same,"best ORR of stable disease (SD), share of ATC population","[1]; Example 2, adequately treated cohort, n=9/18, with gemcitabine",50%
same,median Progression-Free Survival (PFS),"[1]; Example 2, with gemcitabine, 95% CI 70-131, FIG. 4",118 days
same,median time to progression (TTP),"[1]; Example 2, with gemcitabine, 95% CI 70-147, FIG. 3",121 days
same,median Overall Survival (OS),"[1]; Example 2, with gemcitabine, 95% CI 131-228, FIG. 5",218 days
same,correlation of time of Coenzyme Q10 exposure with time to progression,"[1]; FIG. 1, monotherapy or combination therapy",positively correlated
same,correlation of time of Coenzyme Q10 exposure with overall survival,"[1]; FIG. 2, monotherapy or combination therapy",positively correlated
same,Discontinuation from the study: Disease Progression,[1]; Overall to Date (N = 47),12 (25.5) N (%)
same,duration of survival outcomes,pancreatic models,significantly improved
same,patients who experienced at least 1 AE,[2]; Example 1,All
same,"INR increase, frequency of AE","[2]; Example 1, 31 treated patients",48.4%
same,"abdominal pain, frequency of AE","[2]; Example 1, 31 treated patients",35.5%
same,"fatigue, frequency of AE","[2]; Example 1, 31 treated patients",38/7
same,"thrombocytopenia, frequency of AE","[2]; Example 1, 31 treated patients",35.5%
same,tolerability,"[2]; Example 1, Phase 2",well-tolerated
same,AEs considered definitely related to study drug,"[2]; Example 1, number of AEs",10
same,AEs considered possibly related to study drug,"[2]; Example 1, number of AEs",19
same,AEs considered probably related to study drug,"[2]; Example 1, number of AEs",14
same,most common AE's,[2]; Example 2,GI related
same,tolerability,[2]; Example 2,well tolerated
same,Number of AEs,[2]; [6],347
same,Subjects with any AE leading to study drug discontinuation,[2]; [6],4 (12.9) N (%)
same,Subjects with any Infusion reactions,[2]; [6],0 N (%)
same,Subjects with any Serious AE,[2]; [6],12 (38.7) N (%)
same,Subjects with any ≥Grade 3 AE,[2]; [6],31 (100) N (%)
same,Patients with an AE,"[2]; treatment-emergent, listed as Coenzyme Q10-IV",31 (100) N (%)
same,Patients with an AE,"[2]; treatment-emergent, listed as Mono",13 (41.9) N (%)
same,MTD,[3],110 mg/kg
